Active and inactive are the calls of the source.
Legend:
Assay type in all cases: functional
[1] = molecular target: T1, Delta-type opioid receptor (Homo sapiens, UniProt P41143); assay: HTS Image-Based Screen for Antagonists of the DOR Receptor. [Related pubchem assays (depositor defined):AID1777, AID1785, AID1786, AID2133]
Mu-type opioid receptor = Mu-type opioid receptor (Homo sapiens, UniProt P35372); assay: HTS Image-Based Screen for Agonists of the MOR Receptor. [Related pubchem assays (depositor defined):AID1777, AID1785, AID1786, AID2133];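 note: imaging of beta-arrestin GFP recruitment into spots after receptor activation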
[2] = molecular target: T1, Delta-type opioid receptor; assay: HTS Image-Based Screen for Agonists of the DOR Receptor. [Related pubchem assays (depositor defined):AID1777, AID1786, AID2133]
[3] = molecular target: T2, Kappa-type opioid receptor (Homo sapiens, UniProt P41145)
Beta-galactosidase = Beta-galactosidase (Escherichia coli, UniProt Q8VNN2)
[4] = molecular target: T2, Kappa-type opioid receptor; remark: listed apart in the source
[5] = molecular target: Glucose-6-phosphate 1-dehydrogenase (Homo sapiens, UniProt P11413); assay: inhibition of Homo sapiens G6PD, dose series – biochemical, fluorescence, selectivity assay for P. falciparum G6PD inhibitor project, dose response (AID 504792)
Glucose-6-phosphate 1-dehydrogenase, sequence (P11413 whole entry): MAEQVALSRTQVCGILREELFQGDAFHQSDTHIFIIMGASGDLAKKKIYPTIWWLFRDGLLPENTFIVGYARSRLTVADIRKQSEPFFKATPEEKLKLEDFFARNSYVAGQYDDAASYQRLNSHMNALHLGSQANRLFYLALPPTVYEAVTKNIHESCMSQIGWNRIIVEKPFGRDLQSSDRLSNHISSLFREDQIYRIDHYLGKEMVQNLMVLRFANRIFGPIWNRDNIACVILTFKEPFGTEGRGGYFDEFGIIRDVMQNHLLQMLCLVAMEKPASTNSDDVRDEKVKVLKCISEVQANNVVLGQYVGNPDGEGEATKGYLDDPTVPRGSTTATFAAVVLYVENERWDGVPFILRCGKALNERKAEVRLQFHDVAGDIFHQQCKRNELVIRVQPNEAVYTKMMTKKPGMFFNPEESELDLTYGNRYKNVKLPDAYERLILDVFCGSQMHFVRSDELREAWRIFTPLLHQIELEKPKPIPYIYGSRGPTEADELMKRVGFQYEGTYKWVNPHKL

T2 sequence (P41145 whole entry): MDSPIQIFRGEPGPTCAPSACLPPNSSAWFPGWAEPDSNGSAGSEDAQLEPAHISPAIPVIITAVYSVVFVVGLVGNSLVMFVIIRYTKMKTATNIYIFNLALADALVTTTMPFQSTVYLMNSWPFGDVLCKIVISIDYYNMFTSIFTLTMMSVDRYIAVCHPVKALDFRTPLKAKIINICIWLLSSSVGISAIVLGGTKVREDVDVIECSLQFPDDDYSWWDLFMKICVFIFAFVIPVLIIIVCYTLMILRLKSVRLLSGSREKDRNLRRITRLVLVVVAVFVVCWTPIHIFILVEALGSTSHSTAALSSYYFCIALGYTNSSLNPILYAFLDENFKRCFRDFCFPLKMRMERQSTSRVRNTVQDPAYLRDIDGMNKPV
T1 sequence (P41143 whole entry): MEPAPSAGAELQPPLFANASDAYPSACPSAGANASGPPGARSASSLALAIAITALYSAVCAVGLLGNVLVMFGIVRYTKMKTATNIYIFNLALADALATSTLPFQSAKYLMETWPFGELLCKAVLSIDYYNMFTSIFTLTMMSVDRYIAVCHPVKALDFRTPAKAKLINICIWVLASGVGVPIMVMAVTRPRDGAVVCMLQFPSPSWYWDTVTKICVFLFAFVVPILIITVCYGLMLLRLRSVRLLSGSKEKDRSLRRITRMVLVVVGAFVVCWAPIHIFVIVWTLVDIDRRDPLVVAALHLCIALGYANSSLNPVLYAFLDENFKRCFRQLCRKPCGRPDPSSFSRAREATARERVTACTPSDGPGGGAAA
Mu-type opioid receptor, sequence (P35372 whole entry): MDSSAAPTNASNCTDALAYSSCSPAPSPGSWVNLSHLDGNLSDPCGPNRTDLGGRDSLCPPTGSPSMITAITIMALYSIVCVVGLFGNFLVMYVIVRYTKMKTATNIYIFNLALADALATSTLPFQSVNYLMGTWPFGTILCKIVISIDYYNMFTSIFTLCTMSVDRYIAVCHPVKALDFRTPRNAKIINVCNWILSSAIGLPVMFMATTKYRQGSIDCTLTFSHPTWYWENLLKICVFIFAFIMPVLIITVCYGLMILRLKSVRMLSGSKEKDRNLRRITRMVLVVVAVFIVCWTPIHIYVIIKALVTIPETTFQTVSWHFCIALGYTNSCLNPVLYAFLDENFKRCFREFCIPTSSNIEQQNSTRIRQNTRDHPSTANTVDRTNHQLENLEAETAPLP
Beta-galactosidase, sequence (Q8VNN2 whole entry): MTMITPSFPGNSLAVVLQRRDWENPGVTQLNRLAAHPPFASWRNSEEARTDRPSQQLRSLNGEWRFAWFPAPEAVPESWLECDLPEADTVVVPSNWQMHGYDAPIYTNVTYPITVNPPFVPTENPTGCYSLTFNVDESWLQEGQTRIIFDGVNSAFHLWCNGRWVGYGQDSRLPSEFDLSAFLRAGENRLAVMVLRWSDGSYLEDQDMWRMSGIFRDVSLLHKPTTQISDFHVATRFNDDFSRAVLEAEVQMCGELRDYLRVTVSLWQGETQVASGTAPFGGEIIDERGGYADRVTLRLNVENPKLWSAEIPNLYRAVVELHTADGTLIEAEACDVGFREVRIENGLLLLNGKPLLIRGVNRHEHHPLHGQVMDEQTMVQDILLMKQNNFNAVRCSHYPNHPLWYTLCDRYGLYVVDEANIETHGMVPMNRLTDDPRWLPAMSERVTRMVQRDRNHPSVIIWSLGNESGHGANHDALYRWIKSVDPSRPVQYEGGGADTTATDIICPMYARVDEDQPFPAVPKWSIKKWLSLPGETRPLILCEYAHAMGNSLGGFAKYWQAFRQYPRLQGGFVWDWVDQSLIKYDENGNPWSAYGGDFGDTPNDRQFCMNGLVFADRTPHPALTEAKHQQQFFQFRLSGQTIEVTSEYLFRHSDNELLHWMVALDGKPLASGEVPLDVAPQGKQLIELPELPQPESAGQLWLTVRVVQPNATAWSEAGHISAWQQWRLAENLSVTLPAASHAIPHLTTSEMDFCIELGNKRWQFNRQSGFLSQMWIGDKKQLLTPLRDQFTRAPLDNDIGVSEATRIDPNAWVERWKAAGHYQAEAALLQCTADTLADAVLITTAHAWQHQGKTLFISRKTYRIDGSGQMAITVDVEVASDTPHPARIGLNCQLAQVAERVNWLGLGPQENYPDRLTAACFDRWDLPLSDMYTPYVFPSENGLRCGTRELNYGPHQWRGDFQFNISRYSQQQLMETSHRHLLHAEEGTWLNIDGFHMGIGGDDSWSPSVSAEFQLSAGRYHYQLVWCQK

CC1CCc2c(nc3sc4c(c3c2N)CCCC4)C1 (configuration not stated)
IC50 [1]: > 32 µM (inactive)
EC50 (Mu-type opioid receptor): > 32 µM (inactive)
EC50 [2]: > 32 µM (inactive)
IC50 [3]: 2.2 µM (active)
EC50 (Beta-galactosidase): > 31.5 µM (inactive)
IC50 [4]: > 32 µM
IC50 [5]: > 80 µM (inactive)

Reference: ChEMBL document CHEMBL1201862, “PubChem BioAssay data set” (2004)
